Results published in patent US20250059207A1, “6,6-FUSED HETEROCYCLIC COMPOUNDS AS METTL3 INHIBITORS” (858 Therapeutics, Inc., priority 2021, published 2025).

What follows are compounds tested on MOLM-13 cells (assay: Viability assay in MOLM-13 cells (CellTiter-Glo 2.0)). Conditions: Homo sapiens, MOLM-13, 72 h, read-out: MOLM-13 IC50 (cell viability).
Assay type: cell-based, human
Method: Effects of test compounds on the proliferation and viability of human AML cells was evaluated using the MOLM-13 cell line (AddexBio Technologies cat. no. C0003003). […] Test compounds or controls (Bortezomib or DMSO) diluted in 2% DMSO/media were added to each well for final concentrations of 0.2% DMSO and 0.1-1 μM Bortezomib. The cells were incubated for 72 hours at 37° C. and 5% CO2. At the end of the 72 hour incubation, plates were removed from the incubator, cooled to room temperature and equal volume of CellTiter-Glo 2.0 (Promega) added to each well. After mixing and incubating the plate at room temperature for 10 minutes the luminescence was read using a plate reader. […] Concentration-response-curves and IC50 values were generated using Collaborative Drug Discovery software.

SMILES	IC50
Cc1ccc2nc(Cn3ccc4c(N5CCC5)cncc4c3=O)cn2c1 [Compound 9, 5-(azetidin-1-yl)-2-((6-methylimidazo[1,2-a]pyridin-2-yl)methyl)-2,7-naphthyridin-1(2H)-one]	> 10 µM
O=c1c2cncc(-c3ccccc3)c2ccn1Cc1cn2cc(CNCc3ccc(Cl)cc3)ccc2n1 [Compound 84, 2-((6-(((4-chlorobenzyl)amino)methyl)imidazo[1,2-a]pyridin-2-yl)methyl)-5-phenyl-2,7-naphthyridin-1(2H)-one]	1 to 10 µM
COCCNc1ccnc(NCc2ccc3nc(Cn4ccc5c(-c6ccccc6)cncc5c4=O)cn3c2)c1 [Compound 99, 2-((6-(((4-((2-methoxyethyl)amino)pyridin-2-yl)amino)methyl)imidazo[1,2-a]pyridin-2-yl)methyl)-5-phenyl-2,7-naphthyridin-1(2H)-one]	> 10 µM

Same assay, conditions: MOLM-13 human AML cells, 72 hours, CellTiter-Glo 2.0; read-out: MOLM-13 IC50 (cell viability)

IC50	SMILES
1 to 10 µM	O=c1c2cncc(N3CC4(COC4)C3)c2ccn1Cc1cn2cc(CNCC3CC(F)C3)ccc2n1 (stereo not drawn) [Compound 143, 2-{[6-({[(3-fluorocyclobutyl)methyl]amino}methyl)imidazo[1,2-a]pyridin-2-yl]methyl}-5-{2-oxa-6-azaspiro[3.3]heptan-6-yl}-1,2-dihydro-2,7-naphthyridin-1-one]
1 to 10 µM	O=c1c2cncc(-c3ccccc3)c2ccn1Cc1cn2cc(CNc3cc(NCCCCl)ccn3)ccc2n1 [Compound 96, 2-((6-(((4-((3-chloropropyl)amino)pyridin-2-yl)amino)methyl)imidazo [1,2-a]pyridin-2-yl)methyl)-5-phenyl-2,7-naphthyridin-1(2H)-one]
> 10 µM	O=c1c2cncc(-c3ccccc3)c2ccn1Cc1cn2cc(CNCC3(O)CCC3)ccc2n1 [Compound 74, 2-((6-((((1-hydroxycyclobutyl)methyl)amino)methyl)imidazo[1,2-a]pyridin-2-yl)methyl)-5-phenyl-2,7-naphthyridin-1(2H)-one]
1 to 10 µM	O=c1c2cncc(-c3ccccc3F)c2ccn1Cc1cn2cc(CNCC34CC(F)(C3)C4)ccc2n1 [Compound 154, 2-[(6-{[({3-fluorobicyclo[1.1.1]pentan-1-yl}methyl)amino]methyl}imidazo[1,2-a]pyridin-2-yl)methyl]-5-(2-fluorophenyl)-1,2-dihydro-2,7-naphthyridin-1-one]
1 to 10 µM	O=c1c2cncc(N3CCC4(C3)CC(F)(F)C4)c2ccn1Cc1cn2cc(CNCC3CC(F)C3)ccc2n1 (stereo not drawn) [Compound 147, 5-{2,2-difluoro-6-azaspiro[3.4]octan-6-yl}-2-{[6-({[(3-fluorocyclobutyl)methyl]amino}methyl)imidazo[1,2-a]pyridin-2-yl]methyl}-1,2-dihydro-2,7-naphthyridin-1-one]
1 to 10 µM	O=c1c2cncc(-c3ccccc3)c2ccn1Cc1cn2cc(CNC(CO)c3ccccc3)ccc2n1 (stereo not drawn) [Compound 82, 2-((6-(((2-hydroxy-1-phenylethyl)amino)methyl)imidazo[1,2-a]pyridin-2-yl)methyl)-5-phenyl-2,7-naphthyridin-1(2H)-one]
1 to 10 µM	CC1CCN(Cc2ccc3nc(Cn4ccc5c(N6CC7(CCOCC7)C6)cncc5c4=O)cn3c2)CC1 [Compound 138, 2-({6-[(4-methylpiperidin-1-yl)methyl]imidazo[1,2-a]pyridin-2-yl}methyl)-5-{7-oxa-2-azaspiro[3.5]nonan-2-yl}-1,2-dihydro-2,7-naphthyridin-1-one]
> 10 µM	Cc1ccc2nc(Cn3ccc4c(-c5cc[nH]n5)cncc4c3=O)cn2c1 [Compound 15, 2-((6-methylimidazo[1,2-a]pyridin-2-yl)methyl)-5-(1H-pyrazol-3-yl)-2,7-naphthyridin-1(2H)-one]
1 to 10 µM	O=c1c2cncc(N3CC(N4CCC(F)CC4)C3)c2ccn1Cc1cn2cc(CNCC3CC(F)C3)ccc2n1 (stereo not drawn) [Compound 148, 2-{[6-({[(3-fluorocyclobutyl)methyl]amino}methyl)imidazo[1,2-a]pyridin-2-yl]methyl}-5-[3-(4-fluoropiperidin-1-yl)azetidin-1-yl]-1,2-dihydro-2,7-naphthyridin-1-one]
1 to 10 µM	O=c1c2cncc(N3CC4(CCOCC4)C3)c2ccn1Cc1cn2cc(CN3CCC4(CCOC4)C3)ccc2n1 (stereo not drawn) [Compound 130, 5-{7-oxa-2-azaspiro[3.5]nonan-2-yl}-2-{[6-({2-oxa-7-azaspiro[4.4]nonan-7-yl}methyl)imidazo[1,2-a]pyridin-2-yl]methyl}-1,2-dihydro-2,7-naphthyridin-1-one]
> 10 µM	CC1(C)CCN(Cc2ccc3nc(Cn4ccc5c(-c6ccc(S(N)(=O)=O)cc6)cncc5c4=O)cn3c2)CC1 [Compound 123, 4-[7-({6-[(4,4-dimethylpiperidin-1-yl)methyl]imidazo[1,2-a]pyridin-2-yl}methyl)-8-oxo-7,8-dihydro-2,7-naphthyridin-4-yl]benzene-1-sulfonamide]
1 to 10 µM	CC1(C)CCN(Cc2ccc3nc(Cn4ccc5c(N6CC(N7CCOCC7)C6)cncc5c4=O)cn3c2)CC1 [Compound 118, 2-({6-[(4,4-dimethylpiperidin-1-yl)methyl]imidazo[1,2-a]pyridin-2-yl}methyl)-5-[3-(morpholin-4-yl)azetidin-1-yl]-1,2-dihydro-2,7-naphthyridin-1-one]
> 10 µM	O=c1c2cncc(C3CCC3)c2ccn1Cc1cn2cc(CNCC3CC(F)C3)ccc2n1 (stereo not drawn) [Compound 156, 5-cyclobutyl-2-{[6-({[(3-fluorocyclobutyl)methyl]amino}methyl)imidazo[1,2-a]pyridin-2-yl]methyl}-1,2-dihydro-2,7-naphthyridin-1-one]
1 to 10 µM	O=c1c2cncc(N3CC4(C3)CC(F)(F)C4)c2ccn1Cc1cn2cc(CNCC3CC(F)C3)ccc2n1 (stereo not drawn) [Compound 142, 5-{6,6-difluoro-2-azaspiro[3.3]heptan-2-yl}-2-{[6-({[(3-fluorocyclobutyl)methyl]amino}methyl)imidazo[1,2-a]pyridin-2-yl]methyl}-1,2-dihydro-2,7-naphthyridin-1-one]
> 10 µM	CN1CCN(C2CN(c3cncc4c(=O)n(Cc5cn6cc(CN7CCC(C)(C)CC7)ccc6n5)ccc34)C2)CC1 [Compound 126, 2-({6-[(4,4-dimethylpiperidin-1-yl)methyl]imidazo[1,2-a]pyridin-2-yl}methyl)-5-[3-(4-methylpiperazin-1-yl)azetidin-1-yl]-1,2-dihydro-2,7-naphthyridin-1-one]
> 10 µM	O=c1c2cncc(N3CC4(CCOCC4)C3)c2ccn1Cc1cn2cc(CN3CCC4(CC3)CC4(F)F)ccc2n1 [Compound 141, 2-{[6-({1,1-difluoro-6-azaspiro[2.5]octan-6-yl}methyl)imidazo[1,2-a]pyridin-2-yl]methyl}-5-{7-oxa-2-azaspiro[3.5]nonan-2-yl}-1,2-dihydro-2,7-naphthyridin-1-one]
1 to 10 µM	O=c1c2cncc(-c3ccccc3)c2ccn1Cc1cn2cc(CNCC3CC(F)C3)ccc2n1 (stereo not drawn) [Compound 79, 2-((6-((((3-fluorocyclobutyl)methyl)amino)methyl)imidazo[1,2-a]pyridin-2-yl)methyl)-5-phenyl-2,7-naphthyridin-1(2H)-one]
1 to 10 µM	O=c1c2cncc(N3CC4(CCOCC4)C3)c2ccn1Cc1cn2cc(CN3CC4(C3)CC(F)(F)C4)ccc2n1 [Compound 135, 2-{[6-({6,6-difluoro-2-azaspiro[3.3]heptan-2-yl}methyl)imidazo[1,2-a]pyridin-2-yl]methyl}-5-{7-oxa-2-azaspiro[3.5]nonan-2-yl}-1,2-dihydro-2,7-naphthyridin-1-one]
